Laboratory results taken from ChEMBL document CHEMBL6109148, “Development of Squaramides as Allosteric Modulators of the CB1 Receptor: Synthesis, Computational Studies, Biological Characterization, and Effects against Cocaine-Induced Behavioral Sensitization and Reinstatement in Rats” (J Med Chem, 2025).

Key:
Cannabinoid receptor 1 [1] = target: Cannabinoid receptor 1 (Mus musculus, UniProt P47746); assay: Negative allosteric modulation of CD-1 mouse CB1 receptor extracted from cerebellum membrane in presence of [35S]GTP-gammaS; assay type: cell membranes
Cannabinoid receptor 1 [2] = target: T1, Cannabinoid receptor 1 (Homo sapiens, UniProt P21554); assay: Negative allosteric modulation of human CB1 extracted from HEK293 cell membrane assessed as increase in forskolin-induced cAMP production preincubated for 15 mins followed by forskolin/CP55940 addition by BRET CAMYEL cAMP assay
Cannabinoid receptor 1 [3] = target: T1, Cannabinoid receptor 1; assay: Negative allosteric modulation of human CB1 extracted from HEK293 cell membrane assessed as specific binding of [3H]CP55940 incubated for 90 mins; assay type: cell membranes
[4] = Stability in human liver microsomes assessed as half life at 1 uM preincubated for 10 mis followed by NADPH addition measured for 15 to 60 mins by LC-MS/MS analysis; assay type: ADME, Microsome; settings: time 25-70 min
[5] = Stability in human liver microsomes assessed as clearance at 1 uM preincubated for 10 mis followed by NADPH addition measured for 15 to 60 mins by LC-MS/MS analysis; assay type: ADME, Microsome; settings: time 25-70 min
[6] = Stability in human hepatocytes assessed as half life at 1 uM measured up to 120 mins by LC/MS/MS analysis; assay type: ADME, cell-based, Hepatocyte; settings: 2 h
[7] = Stability in human hepatocytes assessed as clearance at 1 uM measured up to 120 mins by LC/MS/MS analysis; assay type: ADME, cell-based, Hepatocyte; settings: 2 h
[8] = Kinetic solubility of compound in PBS incubated for 2 hrs by LC-MS/MS analysis; assay type: physicochemical; settings: read-out: Kinetic_solubility
[9] = Apparent permeability across apical to basal side in MDCK-MDR1 cells at 10 uM measured for 30 to 90 mins by LC-MS/MS analysis; assay type: ADME, cell-based, Canis lupus familiaris; settings: dog, mdck-mdr1, 10 µM, time 30-90 min
[10] = Apparent permeability across basal to apical side in MDCK-MDR1 cells at 10 uM measured for 30 to 90 mins by LC-MS/MS analysis; assay type: ADME, cell-based, Canis lupus familiaris; settings: dog, mdck-mdr1, 10 µM, time 30-90 min
[11] = Protein binding in rat plasma at 1 uM incubated for 6 hrs by LC-MS/MS analysis; assay type: ADME, cell-free
[12] = Protein binding in rat brain at 1 uM incubated for 6 hrs by LC-MS/MS analysis; assay type: ADME, tissue-based
[13] = Protein binding in human plasma at 1 uM incubated for 6 hrs by LC-MS/MS analysis; assay type: ADME, cell-free
[14] = Drug concentration in plasma of Sprague-Dawley rat at 1 mg/kg, iv measured after 5 mins by LC-MS/MS analysis; assay type: ADME, organism-based
[15] = Drug excretion in Sprague-Dawley rat at 1 mg/kg, iv measured after 4 hrs by LC-MS/MS analysis; assay type: ADME, organism-based; settings: in vivo
[16] = Half life in Sprague-Dawley rat at 1 mg/kg, iv measured for 0.08 to 8 hrs by LC-MS/MS analysis; assay type: ADME, organism-based; settings: in vivo, time 0.08-8 hrs
[17] = Drug concentration in plasma of Sprague-Dawley rat at 5.6 mg/kg, ip measured after 0.25 hrs by LC-MS/MS analysis; assay type: ADME, organism-based
[18] = Drug concentration in plasma of Sprague-Dawley rat at 5.6 mg/kg, ip measured after 0.5 hrs by LC-MS/MS analysis; assay type: ADME, organism-based
[19] = Drug concentration in plasma of Sprague-Dawley rat at 5.6 mg/kg, ip measured after 1 hr by LC-MS/MS analysis; assay type: ADME, organism-based
[20] = Drug concentration in plasma of Sprague-Dawley rat at 5.6 mg/kg, ip measured after 8 hrs by LC-MS/MS analysis; assay type: ADME, organism-based
[21] = Drug concentration in brain of Sprague-Dawley rat at 5.6 mg/kg, ip measured after 0.25 hrs by LC-MS/MS analysis; assay type: ADME, organism-based; settings: read-out: Ct
[22] = Drug concentration in brain of Sprague-Dawley rat at 5.6 mg/kg, ip measured after 0.5 hrs by LC-MS/MS analysis; assay type: ADME, organism-based; settings: read-out: Ct
[23] = Drug concentration in brain of Sprague-Dawley rat at 5.6 mg/kg, ip measured after 1 hr by LC-MS/MS analysis; assay type: ADME, organism-based; settings: read-out: Ct
[24] = Drug concentration in brain of Sprague-Dawley rat at 5.6 mg/kg, ip measured after 8 hrs by LC-MS/MS analysis; assay type: ADME, organism-based; settings: read-out: Ct
Cannabinoid receptor 1 [25] = target: T1, Cannabinoid receptor 1; assay: Agonist activity at human CB1 receptor stably expressed in CHO-RD-HGA16 cells assessed as increase in intracellular calcium mobilization at 10 uM by FLIPR assay relative to CP55940; assay type: functional, cell-based
[26] = target: Cannabinoid receptor 2 (Homo sapiens) (UniProt P34972); assay: Antagonist activity at human CB2 receptor stably expressed in CHO-RD-HGA16 cells assessed as inhibition of CP55940-induced intracellular calcium mobilization at 10 uM by FLIPR assay relative to CP55940; assay type: functional, cell-based; parameters: scale not given: the % may be the effect or the level left
Cannabinoid receptor 1 [27] = target: T1, Cannabinoid receptor 1; assay: Negative allosteric modulation of human CB1 receptor stably expressed in CHO-RD-HGA16 cells assessed as inhibition of CP55940-induced intracellular calcium mobilization incubated for 15 mins by FLIPR assay; assay type: functional, cell-based
Cannabinoid receptor 1 [28] = target: T1, Cannabinoid receptor 1; assay: Negative allosteric modulation of human CB1 receptor extracted from HEK293 cell membrane in presence of [35S]GTP-gammaS; assay type: cell membranes

Sequence of Cannabinoid receptor 1 (Mus musculus, UniProt P47746) (P47746 whole entry): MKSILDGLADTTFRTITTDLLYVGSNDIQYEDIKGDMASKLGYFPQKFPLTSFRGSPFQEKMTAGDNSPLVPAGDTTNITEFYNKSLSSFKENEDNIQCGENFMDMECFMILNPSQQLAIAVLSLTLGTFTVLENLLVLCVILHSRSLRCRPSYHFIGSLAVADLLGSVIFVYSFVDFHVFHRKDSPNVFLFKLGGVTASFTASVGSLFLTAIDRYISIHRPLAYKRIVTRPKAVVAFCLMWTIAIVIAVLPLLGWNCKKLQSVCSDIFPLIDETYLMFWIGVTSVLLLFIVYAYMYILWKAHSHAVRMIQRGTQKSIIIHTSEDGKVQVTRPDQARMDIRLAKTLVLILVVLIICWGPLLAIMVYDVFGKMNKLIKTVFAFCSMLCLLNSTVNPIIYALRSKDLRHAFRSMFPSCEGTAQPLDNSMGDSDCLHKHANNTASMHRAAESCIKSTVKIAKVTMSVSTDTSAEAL
Sequence of Cannabinoid receptor 2 (Homo sapiens) (P34972 whole entry): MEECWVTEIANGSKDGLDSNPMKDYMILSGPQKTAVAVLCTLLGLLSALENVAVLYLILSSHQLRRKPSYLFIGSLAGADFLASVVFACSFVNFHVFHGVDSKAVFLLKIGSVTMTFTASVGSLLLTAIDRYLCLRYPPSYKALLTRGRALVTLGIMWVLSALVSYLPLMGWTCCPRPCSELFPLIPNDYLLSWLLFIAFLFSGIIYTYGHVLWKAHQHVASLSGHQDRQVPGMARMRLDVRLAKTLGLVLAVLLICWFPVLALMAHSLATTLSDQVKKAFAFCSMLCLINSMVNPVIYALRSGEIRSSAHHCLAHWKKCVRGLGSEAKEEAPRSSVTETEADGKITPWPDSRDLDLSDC
T1 sequence (P21554 whole entry): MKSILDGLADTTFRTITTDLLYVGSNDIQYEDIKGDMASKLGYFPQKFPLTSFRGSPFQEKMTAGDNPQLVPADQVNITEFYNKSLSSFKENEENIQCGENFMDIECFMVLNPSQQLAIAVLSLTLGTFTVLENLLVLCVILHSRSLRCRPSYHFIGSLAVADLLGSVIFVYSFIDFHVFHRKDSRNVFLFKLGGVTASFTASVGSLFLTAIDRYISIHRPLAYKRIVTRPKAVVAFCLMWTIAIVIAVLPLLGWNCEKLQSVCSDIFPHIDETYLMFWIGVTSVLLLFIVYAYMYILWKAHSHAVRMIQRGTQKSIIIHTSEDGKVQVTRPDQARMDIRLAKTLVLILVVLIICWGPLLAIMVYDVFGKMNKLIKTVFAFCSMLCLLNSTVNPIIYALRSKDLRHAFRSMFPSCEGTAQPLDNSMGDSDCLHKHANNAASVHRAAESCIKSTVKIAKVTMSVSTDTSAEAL

## O=c1c(NCCc2cccc(Cl)c2)c(Nc2ccc(Cl)cc2)c1=O
Cannabinoid receptor 1 [1]
  IC50: 214 nM
Cannabinoid receptor 1 [2]
  IC50: 148 nM
Cannabinoid receptor 1 [3]
  EC50: 692 nM
[4]
  t1/2: 15.8 min
[5]
  CLH: 87.8 µL/min/mg
[6]
  t1/2: 88.3 min
[7]
  CLH: 39.9 µL/min/mg
[8]
  solubility kinetic at 2 h: < 1 µg/mL
[9]
  Papp: 3.1 10^-6 cm/s
[10]
  Papp: 6.4 10^-6 cm/s
[11]
  PPB: > 99%
[12]
  PB: > 99%
[13]
  PPB: > 99%
[14]
  concentration at 5 min: 1240 ng/mL
[15]
  Drug excretion: Active
[16]
  t1/2: 30.6 min
[17]
  concentration at 0.25 h: 8.7 ng/mL
[18]
  concentration at 0.5 h: 11.7 ng/mL
[19]
  concentration at 1 h: 12.1 ng/mL
[20]
  concentration at 8 h: 4.6 ng/mL
[21]
  concentration at 0.25 h: 173 ng/mL
[22]
  concentration at 0.5 h: 59.5 ng/mL
[23]
  concentration at 1 h: 93.8 ng/mL
[24]
  concentration at 8 h: 54.8 ng/mL

## COc1ccccc1CCNc1c(Nc2ccc(Cl)cc2)c(=O)c1=O
Cannabinoid receptor 1 [25]
  Activity: < 30%
[26]
  Activity: < 50%

## O=c1c(NCCc2ccccc2)c(Nc2ccc(Cl)cc2)c1=O
Cannabinoid receptor 1 [27]
  IC50: 204 nM
Cannabinoid receptor 1 [25]
  Activity: < 30%
[26]
  Activity: < 50%

## Cc1ccc(CCNc2c(Nc3ccc(Cl)cc3)c(=O)c2=O)cc1
Cannabinoid receptor 1 [27]
  IC50: 158 nM
Cannabinoid receptor 1 [25]
  Activity: < 30%
[26]
  Activity: < 50%
Cannabinoid receptor 1 [1]
  IC50: 646 nM

## CN(C)c1ccc(CCNc2c(Nc3ccc(Cl)cc3)c(=O)c2=O)cc1
Cannabinoid receptor 1 [27]
  IC50: 501 nM
Cannabinoid receptor 1 [25]
  Activity: < 30%
[26]
  Activity: < 50%
Cannabinoid receptor 1 [1]
  IC50: 617 nM

## O=c1c(NCCCc2ccccc2)c(Nc2ccc(Cl)cc2)c1=O
Cannabinoid receptor 1 [27]
  IC50: 871 nM
Cannabinoid receptor 1 [25]
  Activity: < 30%
[26]
  Activity: < 50%

## O=c1c(NCCc2cccc(C(F)(F)F)c2)c(Nc2ccc(Cl)cc2)c1=O
Cannabinoid receptor 1 [27]
  IC50: 339 nM
Cannabinoid receptor 1 [25]
  Activity: < 30%
[26]
  Activity: < 50%

## Cc1ccccc1CCNc1c(Nc2ccc(Cl)cc2)c(=O)c1=O
Cannabinoid receptor 1 [27]
  IC50: 1260 nM
Cannabinoid receptor 1 [25]
  Activity: < 30%
[26]
  Activity: < 50%

## O=c1c(NCCN2CCCCC2)c(Nc2ccc(Cl)cc2)c1=O
Cannabinoid receptor 1 [25]
  Activity: < 30%
[26]
  Activity: < 50%

## O=c1c(NCCc2ccccc2C(F)(F)F)c(Nc2ccc(Cl)cc2)c1=O
Cannabinoid receptor 1 [25]
  Activity: < 30%
[26]
  Activity: < 50%

## O=c1c(NCc2ccccc2)c(Nc2ccc(Cl)cc2)c1=O
Cannabinoid receptor 1 [27]
  IC50: > 10000 nM
Cannabinoid receptor 1 [25]
  Activity: < 30%
[26]
  Activity: < 50%

## CC(=O)c1ccc(CCNc2c(Nc3ccc(Cl)cc3)c(=O)c2=O)cc1
Cannabinoid receptor 1 [27]
  IC50: > 10000 nM
Cannabinoid receptor 1 [25]
  Activity: < 30%
[26]
  Activity: < 50%

## O=c1c(NCCc2ccccc2F)c(Nc2ccc(Cl)cc2)c1=O
Cannabinoid receptor 1 [27]
  IC50: 269 nM
Cannabinoid receptor 1 [25]
  Activity: < 30%
[26]
  Activity: < 50%
Cannabinoid receptor 1 [28]
  IC50: 6610 nM
Cannabinoid receptor 1 [1]
  IC50: 5620 nM

## O=c1c(NCCc2ccc(N3CCC3)cc2)c(Nc2ccc(Cl)cc2)c1=O
Cannabinoid receptor 1 [25]
  Activity: < 30%
[26]
  Activity: < 50%

## Cc1ccc(CCNc2c(Nc3ccc(Cl)cc3)c(=O)c2=O)cc1C
Cannabinoid receptor 1 [27]
  IC50: 427 nM
Cannabinoid receptor 1 [25]
  Activity: < 30%
[26]
  Activity: < 50%

## O=c1c(NCCc2ccc(Cl)cc2Cl)c(Nc2ccc(Cl)cc2)c1=O
[26]
  Activity: < 50%

## O=c1c(NCCc2ccc(N3CCCCC3)cc2)c(Nc2ccc(Cl)cc2)c1=O
Cannabinoid receptor 1 [25]
  Activity: < 30%
[26]
  Activity: < 50%

## O=c1c(NCCc2cccs2)c(Nc2ccc(Cl)cc2)c1=O
Cannabinoid receptor 1 [27]
  IC50: 692 nM
Cannabinoid receptor 1 [25]
  Activity: < 30%
[26]
  Activity: < 50%

## O=c1c(NCCc2ccc(C(F)(F)F)cc2)c(Nc2ccc(Cl)cc2)c1=O
Cannabinoid receptor 1 [25]
  Activity: < 30%
[26]
  Activity: < 50%

## O=C(Nc1ccc(Cl)cc1)Nc1cccc(-c2cccc(N3CCCC3)n2)c1
[26]
  Activity: < 50%

## Cc1cccc(CCNc2c(Nc3ccc(Cl)cc3)c(=O)c2=O)c1
Cannabinoid receptor 1 [27]
  IC50: 195 nM
Cannabinoid receptor 1 [25]
  Activity: < 30%
[26]
  Activity: < 50%
Cannabinoid receptor 1 [1]
  IC50: 912 nM

## O=c1c(NCCc2ccc(F)cc2F)c(Nc2ccc(Cl)cc2)c1=O
Cannabinoid receptor 1 [27]
  IC50: 912 nM
Cannabinoid receptor 1 [25]
  Activity: < 30%
[26]
  Activity: < 50%

## O=c1c(NCCc2ccccn2)c(Nc2ccc(Cl)cc2)c1=O
Cannabinoid receptor 1 [25]
  Activity: < 30%
[26]
  Activity: < 50%

## COc1ccc(CCNc2c(Nc3ccc(Cl)cc3)c(=O)c2=O)cc1
Cannabinoid receptor 1 [27]
  IC50: 525 nM
Cannabinoid receptor 1 [25]
  Activity: < 30%
[26]
  Activity: < 50%

## O=c1c(NCCc2ccncc2)c(Nc2ccc(Cl)cc2)c1=O
Cannabinoid receptor 1 [25]
  Activity: < 30%
[26]
  Activity: < 50%

## COc1cccc(CCNc2c(Nc3ccc(Cl)cc3)c(=O)c2=O)c1
Cannabinoid receptor 1 [25]
  Activity: < 30%
[26]
  Activity: < 50%

## O=c1c(Nc2ccc(Cl)cc2)c(N2CCN(c3ccc(Cl)cc3)CC2)c1=O
Cannabinoid receptor 1 [27]
  IC50: > 10000 nM
Cannabinoid receptor 1 [25]
  Activity: < 30%
[26]
  Activity: < 50%

## CCN(CC)c1ccc(CCNc2c(Nc3ccc(Cl)cc3)c(=O)c2=O)cc1
Cannabinoid receptor 1 [27]
  IC50: > 10000 nM
Cannabinoid receptor 1 [25]
  Activity: < 30%
[26]
  Activity: < 50%

## O=c1c(NCCc2cccc(O)c2)c(Nc2ccc(Cl)cc2)c1=O
Cannabinoid receptor 1 [27]
  IC50: > 10000 nM
Cannabinoid receptor 1 [25]
  Activity: < 30%
[26]
  Activity: < 50%

## O=c1c(NCCc2ccc(F)cc2)c(Nc2ccc(Cl)cc2)c1=O
Cannabinoid receptor 1 [25]
  Activity: < 30%
[26]
  Activity: < 50%

## O=c1c(NCCc2ccccc2Cl)c(Nc2ccc(Cl)cc2)c1=O
Cannabinoid receptor 1 [27]
  IC50: 832 nM
Cannabinoid receptor 1 [25]
  Activity: < 30%
[26]
  Activity: < 50%

## O=c1c(NCCc2ccc(Cl)c(Cl)c2)c(Nc2ccc(Cl)cc2)c1=O
Cannabinoid receptor 1 [25]
  Activity: < 30%
[26]
  Activity: < 50%

## CN(C)c1cccc(CCNc2c(Nc3ccc(Cl)cc3)c(=O)c2=O)c1
Cannabinoid receptor 1 [25]
  Activity: < 30%
[26]
  Activity: < 50%

## O=c1c(NCCc2ccc(N3CCCC3)cc2)c(Nc2ccc(Cl)cc2)c1=O
Cannabinoid receptor 1 [25]
  Activity: < 30%
[26]
  Activity: < 50%

## O=c1c(NCCc2ccc(Cl)cc2)c(Nc2ccc(Cl)cc2)c1=O
Cannabinoid receptor 1 [25]
  Activity: < 30%
[26]
  Activity: < 50%

## O=c1c(NCCc2ccc(Br)cc2)c(Nc2ccc(Cl)cc2)c1=O
Cannabinoid receptor 1 [27]
  IC50: > 10000 nM
Cannabinoid receptor 1 [25]
  Activity: < 30%
[26]
  Activity: < 50%

## O=c1c(NCCc2cccc(F)c2)c(Nc2ccc(Cl)cc2)c1=O
Cannabinoid receptor 1 [27]
  IC50: 282 nM
Cannabinoid receptor 1 [25]
  Activity: < 30%
[26]
  Activity: < 50%
